≈ marks a conversion by molar mass, not a printed value. Marks after values point to notes of the source that are not given here. Blank lines part the entries; values can stand above or below the molecule they belong to.
Assays:
[1] = Vapor pressures of crystalline and liquid phases, static method with capacitance diaphragm gauge; format: physicochemical
Excerpt: A previously described and tested static apparatus was used to measure the vapor pressures of the condensed phases (both crystalline and liquid) of the five compounds studied. This installation employs MKS capacitance diaphragm absolute gauges, operating at self-regulated constant temperatures. Our lab is equipped with three pressure gauges. Gauge I, a Baratron 631A01TBEH (MKS instruments, Andover, MA, USA) (Tgauge = 423 K), measures pressures in the range of 0.5 to 1.3 × 10^2 Pa and operates within a temperature range of 253 to 413 K. Gauge II, the instrument used in this study, is a Baratron 631A11TBFP (MKS instruments, Andover, MA, USA) (Tgauge = 473 K), capable of measuring pressures from 0.5 to 1.3 × 10^3 Pa within a temperature range of 253 to 433 K and gauge III, a Baratron 631D02T8FP (MKS instruments, Andover, MA, USA) (Tgauge = 473 K), designed to measure pressures between 0.5 Pa and 2.6 × 10^2 Pa, also within a temperature range of 253 to 433 K. The temperatures of the samples were measured using a Pt100 platinum resistance thermometer, calibrated by comparison with a standard platinum resistance thermometer (SPRT: Tinsley Precision Instruments Ltd, London, England). To prevent vapor condensation, the tubing connecting the cell containing the condensed sample to the pressure gauge is maintained at a temperature higher than that of the sample but lower than that of the gauge. The uncertainty in temperature measurements is estimated to be u(T/K) = ±0.01, and the expanded uncertainties (0.95 confidence level, k = 2) in pressure measurements are given by the expression U(p/Pa) = 0.1 + 0.0050 (p/Pa) for the gauge used. Samples were thoroughly degassed before starting the vapor pressure measurements, ensuring consistent readings at specific temperatures and eliminating any residual volatile substances, including water.

[2] = Equilibrium solubility in water, saturation shake-flask method with UV-vis; conditions: 25 °C, thermodynamic from solid
Description: (§1) The concentration was measured by absorbances at 260 nm for 4-chlorobenzaldehyde, 263 nm for 4-bromobenzaldehyde and 2,4-dichlorobenzaldehyde, 297 nm for 2,6-dichlorobenzaldehyde, and 306 nm for 2,3-dichlorobenzaldehyde, using a Cary-60 UV–vis (Agilent) spectrophotometer. X-ray diffraction (XRD) and differential scanning calorimetry of residual solids were used to identify the eventual phase transformations. The purified samples of each compound studied were used for all experimental determinations, including the solubility measurements. After reaching the equilibrium, the residual solid was dried and analyzed using both DSC and XRD. The melting properties obtained from DSC were compared with those of the original purified sample, following the same procedure for the XRD analysis. […] As an example, the supporting information includes two thermograms and two XRD patterns for 2,4-dichlorobenzaldehyde (Figures S1 and S2). […] Equation (4) was derived from Equation (5), which is widely applicable to the solubility of solids.(4) ΔhydrGm°/kJ·mol^−1=9.17−5.71·log10(Scr/mol·m^−3)−ΔcrgGm°/kJ·mol^−1 (5) S=p^°/RTexpΔcrgGm°+ΔhydrGm°/−RT
(§2) An excess amount of each compound was added to a known volume of water in triplicate. […] After stirring, the solid phase was allowed to settle for 2 h. The pH of the saturated solutions was measured using a Mettler Toledo (Greifensee, Switzerland) FiveEasy F20 pH Meter calibrated with standard aqueous solutions (pH 7.00 and 4.01 or 10.1). Those solutions were then filtered through a 0.22 μm syringe hydrophilic filter (13 mm, PTFE, Labfil, Zhejiang, China) and diluted to the required concentration. The concentration of the compounds, expressed in molarity, was measured by absorbances using a Cary-60 UV–vis spectrophotometer (Agilent Technologies, Santa Clara, CA, USA) at 298.15 K (single cell Peltier accessory, ±0.15 K). The results reported in Table 6 are averaged from at least three replicates. Calibration was performed using solutions of known concentrations of each substance in water. These solutions were prepared by adding a precise mass of the substance and a specific volume of the solvent to a flask, then mixing until the substance was fully dissolved. The absorbance of these solutions was measured, and calibration curves were created.

[3] = pH of the saturated aqueous solutions; format: physicochemical; conditions: saturated aqueous solution of the solubility experiment
Description: as §1, §2

Compound: O=Cc1ccc(Cl)cc1Cl [2,4-Dichlorobenzaldehyde]
vapor pressure p ([1]; crystalline phase, T = 285.78 K): 0.64 Pa
vapor pressure p ([1]; crystalline phase, T = 287.68 K): 0.80 Pa
vapor pressure p ([1]; crystalline phase, T = 289.73 K): 1.02 Pa
vapor pressure p ([1]; crystalline phase, T = 291.36 K): 1.23 Pa
vapor pressure p ([1]; crystalline phase, T = 293.15 K): 1.50 Pa
vapor pressure p ([1]; crystalline phase, T = 294.83 K): 1.81 Pa
vapor pressure p ([1]; crystalline phase, T = 296.85 K): 2.29 Pa
vapor pressure p ([1]; crystalline phase, T = 298.81 K): 2.85 Pa
vapor pressure p ([1]; crystalline phase, T = 301.19 K): 3.67 Pa
vapor pressure p ([1]; crystalline phase, T = 303.16 K): 4.55 Pa
vapor pressure p ([1]; crystalline phase, T = 305.23 K): 5.65 Pa
vapor pressure p ([1]; crystalline phase, T = 307.12 K): 6.86 Pa
vapor pressure p ([1]; crystalline phase, T = 308.88 K): 8.29 Pa
vapor pressure p ([1]; crystalline phase, T = 310.95 K): 10.12 Pa
vapor pressure p ([1]; crystalline phase, T = 313.23 K): 12.78 Pa
vapor pressure p ([1]; crystalline phase, T = 315.25 K): 15.58 Pa
vapor pressure p ([1]; crystalline phase, T = 317.80 K): 20.05 Pa
vapor pressure p ([1]; crystalline phase, T = 320.56 K): 26.18 Pa
vapor pressure p ([1]; crystalline phase, T = 322.93 K): 32.84 Pa
vapor pressure p ([1]; crystalline phase, T = 325.24 K): 40.77 Pa
vapor pressure p ([1]; crystalline phase, T = 327.66 K): 50.25 Pa
vapor pressure p ([1]; crystalline phase, T = 329.75 K): 60.90 Pa
vapor pressure p ([1]; crystalline phase, T = 331.73 K): 72.78 Pa
vapor pressure p ([1]; crystalline phase, T = 333.66 K): 85.89 Pa
vapor pressure p ([1]; crystalline phase, T = 335.72 K): 102.0 Pa
vapor pressure p ([1]; crystalline phase, T = 337.64 K): 119.1 Pa
vapor pressure p ([1]; crystalline phase, T = 339.73 K): 141.9 Pa
vapor pressure p ([1]; crystalline phase, T = 341.66 K): 166.2 Pa
vapor pressure p ([1]; liquid phase, T = 344.36 K): 207.6 Pa
vapor pressure p ([1]; liquid phase, T = 346.33 K): 233.6 Pa
vapor pressure p ([1]; liquid phase, T = 348.33 K): 261.6 Pa
vapor pressure p ([1]; liquid phase, T = 349.66 K): 282.0 Pa
vapor pressure p ([1]; liquid phase, T = 351.41 K): 310.8 Pa
vapor pressure p ([1]; liquid phase, T = 353.17 K): 342.8 Pa
vapor pressure p ([1]; liquid phase, T = 355.39 K): 390.3 Pa
vapor pressure p ([1]; liquid phase, T = 357.59 K): 437.4 Pa
vapor pressure p ([1]; liquid phase, T = 359.46 K): 479.4 Pa
vapor pressure p ([1]; liquid phase, T = 361.34 K): 533.0 Pa
vapor pressure p ([1]; liquid phase, T = 363.54 K): 603.2 Pa
vapor pressure p ([1]; liquid phase, T = 365.63 K): 668.2 Pa
vapor pressure p ([1]; liquid phase, T = 367.44 K): 733.6 Pa
vapor pressure p ([1]; liquid phase, T = 369.34 K): 810.6 Pa
vapor pressure p ([1]; liquid phase, T = 371.29 K): 885.4 Pa
vapor pressure p ([1]; liquid phase, T = 373.62 K): 998.4 Pa
vapor pressure p ([1]; liquid phase, T = 375.74 K): 1100 Pa
vapor pressure p ([1]; supercooled liquid, T = 324.34 K): 57.72 ^d Pa
vapor pressure p ([1]; supercooled liquid, T = 326.40 K): 66.54 ^d Pa
vapor pressure p ([1]; supercooled liquid, T = 328.22 K): 75.25 ^d Pa
vapor pressure p ([1]; supercooled liquid, T = 330.22 K): 85.67 ^d Pa
vapor pressure p ([1]; supercooled liquid, T = 332.21 K): 97.72 ^d Pa
vapor pressure p ([1]; supercooled liquid, T = 334.17 K): 110.6 ^d Pa
vapor pressure p ([1]; supercooled liquid, T = 336.16 K): 125.6 ^d Pa
vapor pressure p ([1]; supercooled liquid, T = 338.15 K): 141.4 ^d Pa
vapor pressure p ([1]; supercooled liquid, T = 340.44 K): 163.3 ^d Pa
vapor pressure p ([1]; supercooled liquid, T = 342.29 K): 184.1 Pa
solubility at 72 h [2]: 821 µM (≈ 144 µg/mL)
pH of the saturated solution [3]: 6.57

vapor pressure p ([1]; crystalline phase, T = 292.72 K): 0.50 Pa
vapor pressure p ([1]; crystalline phase, T = 294.67 K): 0.63 Pa
vapor pressure p ([1]; crystalline phase, T = 296.72 K): 0.81 Pa
vapor pressure p ([1]; crystalline phase, T = 298.56 K): 1.00 Pa
vapor pressure p ([1]; crystalline phase, T = 300.60 K): 1.28 Pa
vapor pressure p ([1]; crystalline phase, T = 302.53 K): 1.58 Pa
vapor pressure p ([1]; crystalline phase, T = 304.58 K): 1.97 Pa
vapor pressure p ([1]; crystalline phase, T = 306.53 K): 2.49 Pa
vapor pressure p ([1]; crystalline phase, T = 308.53 K): 3.07 Pa
vapor pressure p ([1]; crystalline phase, T = 310.48 K): 3.74 Pa
vapor pressure p ([1]; crystalline phase, T = 312.49 K): 4.61 Pa
vapor pressure p ([1]; crystalline phase, T = 314.41 K): 5.68 Pa
vapor pressure p ([1]; crystalline phase, T = 316.45 K): 7.02 Pa
vapor pressure p ([1]; crystalline phase, T = 318.40 K): 8.62 Pa
vapor pressure p ([1]; crystalline phase, T = 320.45 K): 10.52 Pa
vapor pressure p ([1]; crystalline phase, T = 322.40 K): 12.77 Pa
vapor pressure p ([1]; crystalline phase, T = 324.42 K): 15.66 Pa
vapor pressure p ([1]; crystalline phase, T = 326.34 K): 18.87 Pa
vapor pressure p ([1]; crystalline phase, T = 328.34 K): 22.67 Pa
vapor pressure p ([1]; crystalline phase, T = 330.30 K): 27.33 Pa
vapor pressure p ([1]; crystalline phase, T = 332.29 K): 32.89 Pa
vapor pressure p ([1]; crystalline phase, T = 334.27 K): 39.51 Pa
vapor pressure p ([1]; crystalline phase, T = 336.23 K): 46.91 Pa
vapor pressure p ([1]; crystalline phase, T = 338.20 K): 56.28 Pa
vapor pressure p ([1]; liquid phase, T = 344.17 K): 91.46 Pa
vapor pressure p ([1]; liquid phase, T = 346.13 K): 103.7 Pa
vapor pressure p ([1]; liquid phase, T = 348.09 K): 118.4 Pa
vapor pressure p ([1]; liquid phase, T = 350.07 K): 133.6 Pa
vapor pressure p ([1]; liquid phase, T = 352.10 K): 151.3 Pa
vapor pressure p ([1]; liquid phase, T = 354.09 K): 168.0 Pa
vapor pressure p ([1]; liquid phase, T = 356.04 K): 190.2 Pa
vapor pressure p ([1]; liquid phase, T = 358.03 K): 212.4 Pa
vapor pressure p ([1]; liquid phase, T = 359.98 K): 239.9 Pa
vapor pressure p ([1]; liquid phase, T = 361.98 K): 266.2 Pa
vapor pressure p ([1]; liquid phase, T = 363.92 K): 297.7 Pa
vapor pressure p ([1]; liquid phase, T = 365.92 K): 333.0 Pa
vapor pressure p ([1]; liquid phase, T = 367.87 K): 372.6 Pa
vapor pressure p ([1]; liquid phase, T = 369.87 K): 415.4 Pa
vapor pressure p ([1]; liquid phase, T = 371.82 K): 456.8 Pa
vapor pressure p ([1]; liquid phase, T = 373.82 K): 506.8 Pa
vapor pressure p ([1]; liquid phase, T = 375.77 K): 559.6 Pa
vapor pressure p ([1]; liquid phase, T = 377.79 K): 620.3 Pa
vapor pressure p ([1]; liquid phase, T = 379.71 K): 682.3 Pa
vapor pressure p ([1]; liquid phase, T = 381.71 K): 755.4 Pa
vapor pressure p ([1]; liquid phase, T = 383.62 K): 827.1 Pa
vapor pressure p ([1]; supercooled liquid, T = 334.28 K): 48.38 ^d Pa
vapor pressure p ([1]; supercooled liquid, T = 335.87 K): 53.45 ^d Pa
vapor pressure p ([1]; supercooled liquid, T = 338.22 K): 62.48 ^d Pa
vapor pressure p ([1]; supercooled liquid, T = 340.16 K): 71.24 ^d Pa
vapor pressure p ([1]; supercooled liquid, T = 342.24 K): 81.73 ^d Pa
solubility at 72 h [2]: 1130 µM (≈ 197 µg/mL)
pH of the saturated solution [3]: 6.39
Compound: O=Cc1c(Cl)cccc1Cl [2,6-Dichlorobenzaldehyde]

— article PMC11990670, “Exploring the Volatility, Phase Transitions, and Solubility Properties of Five Halogenated Benzaldehydes” (Molecules, 2025)
